As a reminder, the inhibition is the change of the read-out against control, counted positive when it falls.

The experiment has as its target T1, rat adrenergic α1B receptor (Rattus norvegicus, UniProt P15823).
T1 construct: from tissue; host or cells: Wistar Rat liver
T1 sequence (P15823 1-515): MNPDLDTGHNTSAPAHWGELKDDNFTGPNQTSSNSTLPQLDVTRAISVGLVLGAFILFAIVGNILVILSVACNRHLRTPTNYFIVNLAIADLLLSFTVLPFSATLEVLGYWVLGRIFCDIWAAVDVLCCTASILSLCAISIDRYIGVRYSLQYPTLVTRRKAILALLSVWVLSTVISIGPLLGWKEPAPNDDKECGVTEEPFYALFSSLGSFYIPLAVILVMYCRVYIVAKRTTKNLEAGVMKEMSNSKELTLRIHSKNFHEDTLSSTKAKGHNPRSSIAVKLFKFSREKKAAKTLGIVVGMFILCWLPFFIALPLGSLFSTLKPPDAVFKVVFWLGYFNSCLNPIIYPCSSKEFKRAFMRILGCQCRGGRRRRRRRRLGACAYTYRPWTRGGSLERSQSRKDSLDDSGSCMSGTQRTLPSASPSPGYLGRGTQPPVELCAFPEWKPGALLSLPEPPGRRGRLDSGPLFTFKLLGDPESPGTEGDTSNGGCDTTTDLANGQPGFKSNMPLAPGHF
Briefly: Adrenergic α1B radioligand binding assay ([3H]Prozosin). The settings on record: compound at 0.1 μM; 0.25 nM [3H]Prozosin; Wistar Rat liver; read-out: Percent Inhibition of ligand binding, Adrenergic (0.1 μM) a1B. How it is done: To evaluate in radioligand binding assays the activity of compounds of the invention, rat adrenergic α1B receptor obtained from Wistar Rat liver (Garcia-S'ainz, J. A. et al., Biochem. Biophys. Res. Commun. 186:760, 1992; Michel A. D. et al., Br. J. Pharmacol. 98:883, 1989) in a modified Tris-HCl buffer (50 mM Tris-HCl buffer, pH 7.4, 0.5 mM EDTA) is used. Compounds of the invention are incubated with 0.25 nM [^3H]Prozosin for 60 min at 25° C. Non-specific binding is estimated in the presence of 10 μM phentolamine. Receptor proteins are filtered and washed, the filters are then counted to determine [^3H]Prozosin specifically bound. Compounds are screened at 1 μM or lower, using 1% DMSO as vehicle. Compounds of the invention are tested in this biochemical assay and percent inhibition of specific binding is determined.
For `CC[C@](O)(Cn1c2c(c3cc(C)ccc31)CN(C)CC2)c1ccc(F)cc1` [Compound 1-60, (R)-1-(2,8-Dimethyl-3,4-dihydro-1H-pyrido[4,3-b]indol-5(2H)-yl)-2-(4-fluorophenyl)butan-2-ol], the inhibition at 0.1 µM is -2%.

`CC[C@](O)(Cn1c2c(c3cc(C)ccc31)CN(C)CC2)c1ccncc1` [Compound 1-63, (R)-1-(2,8-Dimethyl-3,4-dihydro-1H-pyrido[4,3-b]indol-5(2H)-yl)-2-(pyridine-4-yl)butan-2-ol]: the inhibition at 0.1 µM worked out at 5%.

For the compound `CCCC[C@](O)(Cn1c2c(c3cc(Cl)ccc31)CN(C)CC2)c1ccc(F)cc1` [Compound 1-61, (R)-1-(8-Chloro-2-methyl-3,4-dihydro-1H-pyrido[4,3-b]indol-5(2H)-yl)-2-(4-fluorophenyl)hexan-2-ol], the inhibition at 0.1 µM amounted to 0%.

Turning to `COc1ccc([C@](C)(O)Cn2c3c(c4cc(C)ccc42)CN(C)CC3)cc1` [Compound 1-20, (S)-1-(2,8-Dimethyl-3,4-dihydro-1H-pyrido[4,3-b]indol-5(2H)-yl)-2-(4-methoxyphenyl)propan-2-ol], the inhibition at 0.1 µM amounted to 63%.

On to `CC[C@@](O)(Cn1c2c(c3cc(C)ccc31)CN(C)CC2)c1ccc(F)cc1` [Compound 1-66, (S)-1-(2,8-dimethyl-3,4-dihydro-1H-pyrido[4,3-b]indol-5(2H)-yl)-2-(4-fluorophenyl)butan-2-ol], for which the inhibition at 0.1 µM was determined as 11%.

Regarding `CCCC[C@@](O)(Cn1c2c(c3cc(Cl)ccc31)CN(C)CC2)c1ccc(F)cc1` [Compound 1-67, (S)-1-(8-chloro-2-methyl-3,4-dihydro-1H-pyrido[4,3-b]indol-5(2H)-yl)-2-(4-fluorophenyl)hexan-2-ol], the inhibition at 0.1 µM was -2%.

Regarding `Cc1ccc2c(c1)c1c(n2CCc2ccc(C)nc2)CCN(CC(F)(F)F)C1` [Compound 1-65, 8-methyl-5-(2-(6-methylpyridin-3-yl)ethyl)-2-(2,2,2-trifluoroethyl)-2,3,4,5-tetrahydro-1H-pyrido[4,3-b]indole], the inhibition at 0.1 µM was -4%.

As to `CN1CCc2c(c3cc(Cl)c(Cl)cc3n2CC(C)(O)c2ccncc2)C1` (stereo not shown) [Compound 1-17, 1-(7,8-dichloro-2-methyl-3,4-dihydro-1H-pyrido[4,3-b]indol-5(2H)-yl)-2-(pyridin-4-yl)propan-2-ol], the inhibition at 0.1 µM amounted to 55%.

As to `Cc1ccc2c(c1)c1c(n2CC(O)c2ccncc2)CCN(C)C1` (stereo not shown) [Compound 1-8, 2-(2,8-dimethyl-3,4-dihydro-1H-pyrido[4,3-b]indol-5(2H)-yl)-1-(pyridin-4-yl)ethanol], the inhibition at 0.1 µM amounted to 54%.

As for `CN1CCc2c(c3cc(Cl)ccc3n2CC(O)c2ccncc2)C1` (stereo not shown) [Compound 1-11, 2-(8-chloro-2-methyl-3,4-dihydro-1H-pyrido[4,3-b]indol-5(2H)-yl)-1-(pyridin-4-yl)ethanol], the inhibition at 0.1 µM was found to be 60%.

(Values after patent US9255094B2, “Pyrido[4,3-B]indoles and methods of use” (Medivation Technologies, Inc., priority 2009, dated 2016).)
